Experiments:
AT1 receptor = AT1 receptor (Homo sapiens, UniProt P30556); test: Receptor-HIT BRET, β-arrestin2/Venus with RAGE/Rluc8 and AT1 receptor; format: cell-based
Procedure: The BRET ratio was calculated by subtracting the ratio of ‘acceptor emission’ over ‘donor emission’ for a cell sample expressing Rluc8-tagged protein alone from the same ratio for a cell sample expressing both Rluc8 and Venus-tagged proteins. Alternatively, the ligand-induced BRET signal was calculated by subtracting the ratio of ‘acceptor emission’ over ‘donor emission’ for a vehicle-treated cell sample from the same ratio for a second aliquot of the same cells treated with agonist.
The fluorescence/luminescence ratio was generated by dividing the fluorescence values in arbitrary units (obtained with the EnVision) by the luminescence values also in arbitrary units (obtained as part of the BRET assay).

isolated aortae = test: Ex vivo exposure of isolated aortae to Ang II, expression of pro-atherogenic mediators by RT-PCR; design: species or system mouse; settings: 1 μM
Procedure: (§1) At the end of each study period, thoracic and abdominal aortae were placed in TRIZOL, snap frozen and stored at −80° C. RNA extraction and cDNA synthesis was performed in aortic homogenates using the Trizol method. Gene expression of pro-atherogenic mediators including adhesion molecules, cytokines, inflammatory, oxidative stress and macrophage markers, were estimated in aortic homogenates by quantitative real-time RT-PCR, performed using the TaqMan system based on real-time detection of accumulated fluorescence (ABI Prism 7700, Perkin-Elmer Inc, PE Biosystems, Foster City, CA, USA). Gene expression was normalized to 18S mRNA and reported as fold change compared to the level of expression in untreated control mice/cells, which were given an arbitrary value of 1.
Ex Vivo Studies in Isolated Aortae
Aortae were isolated from apoE KO and AGER/apoE DKO mice, divided and placed in Krebs buffer and maintained at physiological pH by infusing carbogen gas (95% O2; 5% CO2) through the buffer at 37° C. Vessels (n=6/group) were then treated with Ang II (1 μM) for 4 hours. After which time, whole blood labelled with DilC18 (1:1000) was then perfused through the aorta at 0.12 ml/min. Images and videos of vessel wall-cell interactions were observed using a fluorescence microscope (Zeiss Discovery.V20), coupled to a digital camera ([…] ORCA-ER) and analysed with AxioVison software.

[1] = Circulating concentration of RAGE ligands (S100A8/A9, AGEs, methylglyoxal); format: in vivo, mouse; settings: four-week infusion 1 μg/kg/min
Procedure: Circulating Concentration of RAGE Ligands
Changes in circulating levels of RAGE ligands were assessed in animal models. S100A8/A9 levels were estimated by ELISA (Immundiagnostik, Germany) performed according to the manufacturer's instructions. Plasma AGEs were measured by in-house ELISA. Plasma methylglyoxal, a reactive precursor of AGEs, was measured by HPLC.

apoE KO mice [2] = test: Aortic expression of pro-inflammatory mediators by quantitative real-time PCR (aortic homogenates); format: in vivo, mouse; settings: four-week infusion 1 μg/kg/min
Procedure: Aortic Expression of Pro-Inflammatory Mediators by Quantitative Real-Time PCR
as §1

apoE KO mice [3] = test: Induction of oxidative stress (plasma 8-OHdG ELISA, aortic NOX-1/NOX-4 RT-PCR); format: in vivo, mouse; settings: four-week infusion 1 μg/kg/min
Source text: Induction of Oxidative Stress
The induction of oxidative stress in each animal model was estimated by the measurement of plasma levels of 8-hydroxydeoxyguanosine using the OxiSelect Oxidative DNA Damage ELISA Kit (8-OHdG Quantitation; Cell Biolabs, Inc), and performed as per manufacturer's instructions. In addition, gene expression of the superoxide-producing NADPH oxidase subunits, NOX-1 and NOX-4 were quantitated in the aortae of mice using real time RT-PCR, as detailed above.

apoE KO mice [4] = test: Aortic plaque area quantitation (Sudan IV staining of aortic arch); format: in vivo, mouse
Source text: C57bl6 mice, AGER knockout (KO) mice, apoE KO mice, AGER/apoE double knockout (DKO), Ace2/apoE DKO and AGER/Ace2/apoE triple knockout (TKO) mice were sourced and generated in-house at the AMPREP animal house. All mice were bred on a C57bl6 background. For experimental studies, male mice aged 6-8 weeks and weighing between 20-25 g were used, with at least 8 animals per group for in vivo studies and n=6/group for ex vivo studies. Throughout the study animals were given access to mouse chow and water ad libitum. All experiments were approved by the animal ethics committee of the Alfred Medical Research Precinct and conducted in accordance with the Guide for the Care and Use of Laboratory Animals published by the US National Institutes of Health (NIH Publication No. 85-23, revised 1996).
Aortic Plaque Area Quantitation Method
Aortic arches were removed from mice, cleaned of excess fat, placed in 10% neutral buffered formalin and subsequently stained with Sudan IV-Herxheimer's solution (0.5% w/vol; Gurr, BDH Limited, Poole, UK). Aortae were then dissected longitudinally, and pinned flat onto a wax pad. Plaque accumulation across the aortic arch was quantitated as the percentage area stained red.
Angiotensin Infusion Model […]

IQGAP-1 = molecular target: T1, IQGAP-1 (Cricetulus griseus, UniProt A0A8C2MPD4); test: Pull down from cytosolic components on a column coated with S391A-RAGE362-404; format: binding; settings: column coated with the peptide
T1 construct: 5×10^7 CHO cells stably transfected with Hs-AT1R were lysed using RIPA buffer; endogenous in cells; host or cells: lysate of CHO cells stably transfected with Hs-AT1R
T1 sequence (A0A8C2MPD4 1-1657): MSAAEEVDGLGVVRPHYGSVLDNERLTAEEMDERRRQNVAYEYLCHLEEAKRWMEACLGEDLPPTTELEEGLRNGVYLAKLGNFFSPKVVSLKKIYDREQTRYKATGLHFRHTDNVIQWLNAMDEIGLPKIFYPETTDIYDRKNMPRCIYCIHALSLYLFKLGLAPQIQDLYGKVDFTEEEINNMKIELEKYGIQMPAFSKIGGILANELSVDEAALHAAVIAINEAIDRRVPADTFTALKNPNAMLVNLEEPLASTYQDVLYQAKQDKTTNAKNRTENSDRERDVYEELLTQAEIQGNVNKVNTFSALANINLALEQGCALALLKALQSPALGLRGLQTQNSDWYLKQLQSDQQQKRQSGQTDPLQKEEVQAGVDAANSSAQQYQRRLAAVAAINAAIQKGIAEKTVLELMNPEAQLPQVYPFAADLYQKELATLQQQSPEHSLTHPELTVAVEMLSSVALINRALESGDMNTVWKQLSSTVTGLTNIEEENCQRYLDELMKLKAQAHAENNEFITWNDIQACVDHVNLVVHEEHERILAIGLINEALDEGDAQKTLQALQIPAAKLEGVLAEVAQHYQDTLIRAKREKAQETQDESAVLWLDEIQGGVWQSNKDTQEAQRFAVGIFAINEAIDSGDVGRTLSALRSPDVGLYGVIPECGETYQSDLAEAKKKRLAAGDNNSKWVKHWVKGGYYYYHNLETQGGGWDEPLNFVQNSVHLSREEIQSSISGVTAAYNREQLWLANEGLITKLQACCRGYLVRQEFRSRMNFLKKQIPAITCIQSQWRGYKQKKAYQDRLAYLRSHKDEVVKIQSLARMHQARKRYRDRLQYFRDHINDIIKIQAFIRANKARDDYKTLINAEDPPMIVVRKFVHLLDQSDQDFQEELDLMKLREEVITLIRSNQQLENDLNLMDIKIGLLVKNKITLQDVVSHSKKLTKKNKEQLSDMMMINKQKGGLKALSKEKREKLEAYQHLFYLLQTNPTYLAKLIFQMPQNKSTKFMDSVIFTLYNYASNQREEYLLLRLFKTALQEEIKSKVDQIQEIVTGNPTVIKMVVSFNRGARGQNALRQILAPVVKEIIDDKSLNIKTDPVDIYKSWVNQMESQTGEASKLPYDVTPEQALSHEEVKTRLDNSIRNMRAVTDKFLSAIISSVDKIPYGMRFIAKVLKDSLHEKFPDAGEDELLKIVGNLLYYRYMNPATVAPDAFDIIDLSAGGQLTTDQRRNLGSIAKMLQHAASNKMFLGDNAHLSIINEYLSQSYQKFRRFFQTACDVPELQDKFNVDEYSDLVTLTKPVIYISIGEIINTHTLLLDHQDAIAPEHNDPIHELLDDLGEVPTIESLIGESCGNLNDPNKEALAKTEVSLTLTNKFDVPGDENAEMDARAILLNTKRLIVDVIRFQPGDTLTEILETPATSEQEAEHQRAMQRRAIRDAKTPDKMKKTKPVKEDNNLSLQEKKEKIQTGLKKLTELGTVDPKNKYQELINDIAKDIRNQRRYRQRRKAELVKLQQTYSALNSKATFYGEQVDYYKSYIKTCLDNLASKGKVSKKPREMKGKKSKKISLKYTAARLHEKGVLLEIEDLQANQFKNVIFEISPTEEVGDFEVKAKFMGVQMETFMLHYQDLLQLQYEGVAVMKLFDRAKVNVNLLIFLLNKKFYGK
Source text: FIG. 11C. Pull down of a protein identified as IQGAP-1 from other cytosolic components using a column coated with the mutant RAGE cytosolic tail (S391A-RAGE362-404), as well as IQGAP-1 associated proteins, ezrin/radixin/moesin and the GPCR olfactory receptor 2T2.

AT1 receptor, sequence (P30556 whole entry): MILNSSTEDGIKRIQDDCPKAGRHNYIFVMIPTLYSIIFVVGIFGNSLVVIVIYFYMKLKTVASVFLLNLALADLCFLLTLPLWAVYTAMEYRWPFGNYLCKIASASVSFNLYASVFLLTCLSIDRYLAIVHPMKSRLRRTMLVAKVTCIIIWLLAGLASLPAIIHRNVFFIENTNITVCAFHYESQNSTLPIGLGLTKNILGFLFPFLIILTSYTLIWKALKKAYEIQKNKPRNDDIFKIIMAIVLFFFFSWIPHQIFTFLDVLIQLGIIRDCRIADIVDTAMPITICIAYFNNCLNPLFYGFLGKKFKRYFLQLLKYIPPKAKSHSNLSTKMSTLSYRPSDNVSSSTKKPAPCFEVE
AT1 receptor, sequence (P32121 whole entry partner): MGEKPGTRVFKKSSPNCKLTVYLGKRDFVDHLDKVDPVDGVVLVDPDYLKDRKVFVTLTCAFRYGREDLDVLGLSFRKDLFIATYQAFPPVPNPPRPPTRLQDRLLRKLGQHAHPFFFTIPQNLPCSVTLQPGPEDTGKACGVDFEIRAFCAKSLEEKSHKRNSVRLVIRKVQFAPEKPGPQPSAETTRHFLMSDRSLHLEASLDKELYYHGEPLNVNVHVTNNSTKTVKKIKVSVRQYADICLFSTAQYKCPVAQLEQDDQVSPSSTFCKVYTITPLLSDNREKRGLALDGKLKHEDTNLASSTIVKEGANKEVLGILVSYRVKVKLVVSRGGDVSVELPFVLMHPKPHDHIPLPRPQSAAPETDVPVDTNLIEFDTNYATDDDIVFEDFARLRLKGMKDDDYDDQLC

Row | Substance | recruitment of βarrestin2/Venus to AT1/Rluc8 (AT1 receptor; control) | recruitment of β-arrestin2/Venus proximal to RAGE/Rluc8 (AT1 receptor; in the presence of AT1 receptor) | induction of atherogenic mediators (isolated aortae; aortae from AGER/apoE DKO mice) | expression of pro-atherogenic mediators (isolated aortae; isolated aortae from apoE KO mice) | circulating levels of RAGE ligands ([1]; AGER/apoE DKO mice) | circulating levels of RAGE ligands (S100A8/A9, AGEs, dicarbonyl precursors) ([1]; apoE KO mice) | aortic expression of pro-atherogenic mediators (apoE KO mice [2]; AGER/apoE DKO mice) | aortic expression of genes coding for pro-atherogenic mediators (apoE KO mice [2]; apoE KO mice) | oxidative stress (apoE KO mice [3]; AGER/apoE DKO mice) | markers of oxidative stress (apoE KO mice [3]; apoE KO mice) | atherogenesis (plaque area) (apoE KO mice [4]; AGER/apoE DKO mice, four-week infusion 1 μg/kg/min) | atherogenesis (percentage of the aortic arch surface area staining positive to Sudan IV) (apoE KO mice [4]; apoE KO mice, four-week infusion 1 μg/kg/min vs untreated) | pull down of IQGAP-1 (and ezrin/radixin/moesin, olfactory receptor 2T2) from cytosolic components (IQGAP-1)
1 | angiotensin II (DRVYIHPF) [Ang II, cognate ligand of AT1R] | recruitment | recruitment | prevents | increases | preventing | increases | preventing | increases | preventing | increases | prevents the increase in atherogenesis | increases atherogenesis | –
2 | L362WQRRQRRGEERKAPENQEEEEERAELNQAEEPEAGESSTGGP404 (LWQRRQRRGEERKAPENQEEEEERAELNQAEEPEAGESSTGGP; listed as Homo sapiens) [S391A-RAGE362-404, S391A mutant RAGE cytosolic tail; non-functional substitute for RAGE] | – | – | – | – | – | – | – | – | – | – | – | – | Pull down
